Entries after “also recorded” stand apart in the source; their conditions may differ.
How the values were obtained:
[1] = system: SK-Mel cells; experiment: Cellular polyamine levels in SK-Mel cells, compound alone; assay type: cell-based, human; details: 10 µM for 24 hrs
[2] = system: squamous cell carcinoma (SCC) tumors; experiment: K6/ODC transgenic mouse squamous cell carcinoma model; assay type: in vivo
[3] = system: MDA-MB-231 cells; experiment: Cellular polyamine depletion, PTI plus DFMO; assay type: cell-based, human; details: 5 days, 30 µM 5 or 0.1 µM 11 with 5.0 mM DFMO, 0.5 µM spermidine, 1.0 mM aminoguanidine
[4] = hydrochloride salt form of 5; prior formulation work, ref not given; cited from earlier work
[5] = DFMO 0.5% in drinking water + 0.5 mg/kg 11 i.p. twice daily, 4 weeks

With CCCCCCCC(=O)NCCCC[C@H](N)C(=O)NCCCNCCCCNCCCN [Compound 8] as the compound, how does the “level of cellular polyamines, compound added alone” value [1] read?
Its value is “none of these agents influenced the level of cellular polyamines”.

For NCCC[C@](N)(C(=O)O)C(F)F [DFMO, α-difluoromethylornithine, reference compound], which “tumor growth effect of DFMO alone” value ([2]; DFMO alone in drinking water) is on record?
The value was “moderate tumor growth inhibitory effects; also recorded: weak effect”.

What about the “DFMO alone treated tumors that re-grew” value ([2]; DFMO alone, 6 weeks off-treatment after 4 week treatment) of the same compound?
The value was 11 of 12.

Which “polyamine levels of the cell, combination with DFMO” value [3] does the source give for CCCCCCCCCCCCCCCC(=O)NCCCC[C@@H](N)C(=O)NCCCNCCCCNCCCN [Compound 11, D-Lys-ε-(palmitoyl)-N^1-spermine] here?
Its value is “potent reduction in the polyamine levels”.

And the “toxicity at efficacious dose level” value ([2]; 11 at 0.5 mg/kg i.p. twice daily with DFMO, mice)?
Its value is “no apparent toxicity”.

And the “SCCs with complete or near-complete responses (>95% volume reduction)” value [2, 5]?
Its value is 71%.

What about the “number of SCCs with complete responses out of 17” value [2, 5] of the same compound?
The value was 9.

For CCCCCCCCCCCCCCCC(=O)NCCCC[C@H](N)C(=O)NCCCNCCCCNCCCN [Compound 10, L-Lys-ε-(palmitoyl)-N^1-spermine], which “level of cellular polyamines, compound added alone” value [1] is on record?
Its value is “none of these agents influenced the level of cellular polyamines”.

Which “oral bioavailability, hydrochloride salt form” value [4] does the source give for NCCCC[C@@H](N)C(=O)NCCCNCCCCNCCCN [Compound 5, D-Lys-Spm] here?
The value was less than 1%.
